Measurements published in US9120814B2, “Compounds with embedded benzopyran motif for core structures and preparation method thereof” (SNU R&DB FOUNDATION, priority 2006, dated 2015).

Experiments:
[1] = tested on: Hela adenocarcinoma cell; assay: Cell viability, CCK-8 assay, Hela; format: cell-based; conditions: Homo sapiens; Hela cells, 72 hr treatment; read-out: IC50 (after 72 hr treatment) Hela
Protocol: (§1) The human cancer cell line (A549 lung carcinoma cell, Hela adenocarcinoma cell, U266 myeloma cell) was obtained from American Type Culture Collection (Manassas, Va. USA) and maintained in complete medium [RPMI. 1640 supplemented with heat-inactivated 10% FBS (USP, Austin, Tex., USA) and with 1% antibiotic-antimycotic solution (USP, Austin, Tex., USA)]. The cells were maintained in a humidified atmosphere of 5% CO2 and 95% air at 37° C., and cultured in T75 Flask (Nalge Nune International, Naperville, Ind., USA).
(§2) Cell viability was measured by a cell counting kit (CCK-8 assay, Dojindo, Tokyo, Japan), and the experimental procedure is based on the manufacturer's manual. The cells were cultured into 96-well plates at a density of 2×10^4 cells/well for 24 hours, followed by the treatment of the compounds of the present invention at various concentrations. […] Louis, Mo., USA)) was added to each well, and plates were incubated for additional 2 hours at 37° C. The absorbance of each well at 450 nm was measured with a reference at 630 nm using a Bio-Tek model ELx800™ microplate reader (Bio-Tek Instruments, Inc., Winooski, Vt., USA). The percentage of cell viability was calculated by following Mathematical Equation 1. […]

[2] = tested on: U266 myeloma cell; assay: Cell viability, CCK-8 assay, U266; format: cell-based; conditions: Homo sapiens, U-266; U266 cells, 72 hr treatment; read-out: IC50 (after 72 hr treatment) U266
Protocol: as §1, §2

[3] = molecular target: T1, RAR-related orphan receptor α (RORα) (Homo sapiens, UniProt P35398); assay: Agonistic effect on RORα
T1 sequence (P35398 1-523): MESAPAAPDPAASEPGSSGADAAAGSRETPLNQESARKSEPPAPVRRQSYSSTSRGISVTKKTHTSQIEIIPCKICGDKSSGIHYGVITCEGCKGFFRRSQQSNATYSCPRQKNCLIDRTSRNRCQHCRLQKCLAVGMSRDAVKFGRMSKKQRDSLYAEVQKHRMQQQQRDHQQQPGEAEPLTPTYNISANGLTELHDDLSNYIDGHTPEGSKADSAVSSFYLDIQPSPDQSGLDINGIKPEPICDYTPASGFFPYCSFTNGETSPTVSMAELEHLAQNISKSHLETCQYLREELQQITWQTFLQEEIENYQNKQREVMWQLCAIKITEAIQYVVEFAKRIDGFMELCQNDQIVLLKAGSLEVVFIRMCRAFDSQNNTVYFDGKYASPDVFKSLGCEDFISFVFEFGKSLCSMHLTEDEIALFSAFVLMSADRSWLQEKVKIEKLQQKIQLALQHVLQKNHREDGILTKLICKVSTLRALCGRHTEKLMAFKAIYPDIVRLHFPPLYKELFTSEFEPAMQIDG

[4] = tested on: A549 lung carcinoma cell; assay: Cell viability, CCK-8 assay, A549; format: cell-based; conditions: Homo sapiens; A549 cells, 72 hr treatment; read-out: IC50 (after 72 hr treatment) A549
Protocol: as §1, §2

[5] = tested on: androgen receptor (AR) target gene; assay: RT-PCR of androgen receptor target gene mRNA (FIG. 2); format: cell-based
[6] = tested on: prostate specific antigen (PSA) as a target protein of androgen receptor; assay: Western blot of PSA expression in LNCaP cells (FIG. 1); format: cell-based; conditions: LNCaP androgen-dependent human prostate cancer cell line; compared with bicalutamide

Compound	IC50 [1] [nM]	IC50 [2] [nM]	agonistic effect of activating RORα [3]	IC50 [4] [nM]	mRNA amount of NK3 transcription factor related, locus 1 (NKX3-1) [5]	mRNA amount of kallikrein-related peptidase 2 (KLK2) [5]	mRNA amount of prostate specific antigen (PSA) [5]	anticancer activity based on the expression amount of PSA (western blot) [6]
COc1ccc2c(c1O)OC(C)(C)C=C2c1ccc(Cl)cc1C [Compound 95]	450	460	agonistic effect	380	–	–	–	–
O=C1C2C3=C(c4ccc(O)cc4OC34CCCC4)[C@@H](O)[C@H](c3ccccc3)C2C(=O)N1Cc1ccccc1 (some centres unmarked) [Compound 96]	–	–	–	–	decreasing	decreasing	decreasing	almost analogous to that of bicalutamide
